Measured values from PubChem BioAssay (NCI).
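48-hour exposure; five concentrations; linearly interpolated endpoints. GI50 = concentration required for 50% inhibition of growth. At the TGI there is no net growth.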

How the values were obtained:
Assay in all cases: NCI anticancer screen, dose series, 48 h
[1] = test system: ACHN renal
[2] = test system: NCI-H522 lung
[3] = test system: NCI/ADR-RES ovarian
[4] = test system: COLO 205 colon
[5] = test system: OVCAR-5 ovarian
[6] = test system: SF-539 CNS
[7] = test system: TK-10 renal
[8] = test system: NCI-H226 lung
[9] = test system: CAKI-1 renal
[10] = test system: OVCAR-3 ovarian
[11] = test system: UO-31 renal
[12] = test system: SK-MEL-5 melanoma
[13] = test system: MDA-N
[14] = test system: PC-3 prostate
[15] = test system: UACC-62 melanoma
[16] = test system: OVCAR-8 ovarian
[17] = test system: MDA-MB-435
[18] = test system: SNB-75 CNS
[19] = test system: HOP-62 NSCLC
[20] = test system: MDA-MB-231 breast
[21] = test system: NCI-H23 lung
[22] = test system: NCI-H460 lung
[23] = test system: IGROV1 ovarian
[24] = test system: SK-MEL-28 melanoma
[25] = test system: KM12 colon
[26] = test system: T-47D breast
[27] = test system: SW-620 colon
[28] = test system: SK-OV-3 ovarian
[29] = test system: A498 renal
[30] = test system: HOP-92 NSCLC
[31] = test system: SF-295 CNS
[32] = test system: UACC-257 melanoma
[33] = test system: DU-145 prostate
[34] = test system: OVCAR-4 ovarian
[35] = test system: HCT-15 colon
[36] = test system: MOLT-4 leukemia
[37] = test system: SNB-19 CNS
[38] = test system: RXF 393 renal
[39] = test system: BT-549 breast
[40] = test system: SK-MEL-2 melanoma
[41] = test system: A549 NSCLC
[42] = test system: EKVX NSCLC
[43] = test system: SR leukemia
[44] = test system: HS 578T breast
[45] = test system: HT29 colon
[46] = test system: HL-60(TB) leukemia
[47] = test system: SN12C renal
[48] = test system: U251 CNS
[49] = test system: HCC-2998 colon
[50] = test system: RPMI-8226 leukemia
[51] = test system: SF-268 CNS
[52] = test system: K-562 leukemia
[53] = test system: LOX IMVI melanoma
[54] = test system: MALME-3M melanoma
[55] = test system: CCRF-CEM leukemia
[56] = test system: 786-0 renal
[57] = test system: M14 melanoma
[58] = test system: MCF7 breast
[59] = test system: HCT-116 colon

With `NC(N)=N/N=C/c1c(-c2ccc(Cl)cc2)nc2sc(Cl)cn12` the TGI [1] was > 100 µM, the TGI [2] was 3.47 µM and the TGI [3] was 3.31 µM. The TGI [4] was 2.12 µM, the TGI [5] was 3.1 µM and the TGI [6] was 2.53 µM. The TGI [7] was 3.1 µM, the TGI [8] was 3.36 µM and the TGI [9] was 2.82 µM. The TGI [10] was 2.88 µM, the TGI [11] was 3.1 µM and the TGI [12] was 2.97 µM. The TGI [13] was 3.13 µM, the TGI [14] was > 100 µM and the TGI [15] was 3.25 µM. It also gave a TGI [16] of 2.53 µM, a TGI [17] of 2.57 µM and a TGI [18] of 2.72 µM. It also gave a TGI [19] of 3.25 µM, a TGI [20] of 3.29 µM and a TGI [21] of 2.48 µM. For the same compound, the TGI [22] was 3.21 µM, the TGI [23] was 2.04 µM and the TGI [24] was 3.21 µM. It also gave a TGI [25] of 2.2 µM, a TGI [26] of 2.64 µM and a TGI [27] of 2.28 µM. The TGI [28] was 3.34 µM, the TGI [29] was 3.17 µM and the TGI [30] was 3.17 µM. The TGI [31] was 3.18 µM, the TGI [32] was 3.2 µM and the TGI [33] was 3.37 µM. For the same compound, the TGI [34] was 2.18 µM and the TGI [35] was 2.69 µM.

For `CCc1c(C#N)c(SC(C(N)=O)c2ccccc2)nc(N2CCC(N)CC2)c1C#N` (stereo not given), the GI50 [1] was 18.1 µM, the TGI [1] was 38.8 µM and the GI50 [2] was 12.9 µM. The TGI [2] was 27.1 µM, the GI50 [36] was 11.5 µM and the TGI [36] was 31.2 µM. For the same compound, the GI50 [3] was > 100 µM, the TGI [3] was > 100 µM and the GI50 [37] was 14.9 µM. For the same compound, the TGI [37] was 28.5 µM, the GI50 [38] was 10.4 µM and the TGI [38] was 22.7 µM. For the same compound, the GI50 [4] was 14.2 µM, the TGI [4] was 27.8 µM and the GI50 [5] was 15.5 µM. It also gave a TGI [5] of 31.7 µM, a GI50 [39] of 13.6 µM and a TGI [39] of 27.3 µM. It also gave a GI50 [40] of 14.7 µM, a TGI [40] of 28.5 µM and a GI50 [6] of 15.3 µM. It also gave a TGI [6] of 28.9 µM, a GI50 [41] of 18.4 µM and a TGI [41] of 44.2 µM. It also gave a GI50 [42] of 15.5 µM, a TGI [42] of 36.9 µM and a GI50 [7] of 15.3 µM. It also gave a TGI [7] of 29.9 µM, a GI50 [8] of 13 µM and a TGI [8] of 27.7 µM. It also gave a GI50 [9] of 14.7 µM, a TGI [9] of 28.6 µM and a GI50 [10] of 14.5 µM. The TGI [10] was 28.2 µM, the GI50 [11] was > 100 µM and the TGI [11] was > 100 µM. For the same compound, the GI50 [12] was 15.1 µM, the TGI [12] was 28.3 µM and the GI50 [43] was 16.2 µM. For the same compound, the TGI [43] was 38.1 µM, the GI50 [44] was 14.1 µM and the TGI [44] was 41.1 µM. The GI50 [14] was 12.9 µM, the TGI [14] was 26.5 µM and the GI50 [15] was 15 µM. The TGI [15] was 28.4 µM, the GI50 [16] was 15.9 µM and the TGI [16] was 33.7 µM. For the same compound, the GI50 [17] was 15.4 µM, the TGI [17] was 29.6 µM and the GI50 [18] was 11.2 µM. For the same compound, the TGI [18] was 24.6 µM, the GI50 [19] was 15.9 µM and the TGI [19] was 30.6 µM. The GI50 [20] was 14.7 µM, the TGI [20] was 28 µM and the GI50 [45] was 14.3 µM. It also gave a TGI [45] of 30.7 µM, a GI50 [46] of 10.2 µM and a TGI [46] of 25.9 µM. For the same compound, the GI50 [47] was 13.1 µM, the TGI [47] was 26 µM and the GI50 [48] was 15.7 µM. For the same compound, the TGI [48] was 30.5 µM, the GI50 [49] was 14.1 µM and the TGI [49] was 27.1 µM. For the same compound, the GI50 [50] was 13.7 µM, the TGI [50] was 34.4 µM and the GI50 [21] was 16.4 µM. It also gave a TGI [21] of 31 µM, a GI50 [22] of 16.1 µM and a TGI [22] of 30.7 µM. The GI50 [51] was 14.2 µM, the TGI [51] was 29.2 µM and the GI50 [52] was 12.4 µM. The TGI [52] was 28.6 µM, the GI50 [23] was 14 µM and the TGI [23] was 27.9 µM. The GI50 [53] was 14.3 µM, the TGI [53] was 27.4 µM and the GI50 [24] was 14.7 µM. For the same compound, the TGI [24] was 27.9 µM, the GI50 [25] was 15.9 µM and the TGI [25] was 31.4 µM. The GI50 [54] was 14.6 µM, the TGI [54] was 28.1 µM and the GI50 [26] was 14.6 µM. For the same compound, the TGI [26] was 31.8 µM, the GI50 [27] was 15.5 µM and the TGI [27] was 29.6 µM. The GI50 [28] was 15.7 µM, the TGI [28] was 29.8 µM and the GI50 [55] was 15.2 µM. It also gave a TGI [55] of 36.8 µM, a GI50 [29] of 15.4 µM and a TGI [29] of 30.4 µM. For the same compound, the GI50 [56] was 14.8 µM, the TGI [56] was 28.3 µM and the GI50 [57] was 16.2 µM. The TGI [57] was 30.6 µM, the GI50 [30] was 4.56 µM and the TGI [30] was 19.2 µM. For the same compound, the GI50 [58] was 13 µM, the TGI [58] was 26.8 µM and the GI50 [31] was 14.8 µM. The TGI [31] was 28.7 µM, the GI50 [59] was 13.5 µM and the TGI [59] was 27.4 µM. It also gave a GI50 [32] of 14.3 µM, a TGI [32] of 29.3 µM and a GI50 [33] of 16.9 µM. For the same compound, the TGI [33] was 31.1 µM, the GI50 [34] was 15.5 µM and the TGI [34] was 34.3 µM. The GI50 [35] was 53.5 µM and the TGI [35] was > 100 µM.

`CSc1nc(C)c(CCOC(C)=O)c(N=P(c2ccccc2)(c2ccccc2)c2ccccc2)n1` was tested, and the TGI [36] was 6.43 µM, the TGI [38] was > 10 µM and the TGI [41] was > 10 µM. For the same compound, the TGI [42] was > 10 µM, the TGI [7] was > 10 µM and the TGI [9] was > 10 µM. For the same compound, the TGI [12] was > 10 µM, the TGI [43] was 7.83 µM and the TGI [13] was > 10 µM. For the same compound, the TGI [14] was 9.37 µM, the TGI [15] was > 10 µM and the TGI [16] was > 10 µM. For the same compound, the TGI [18] was > 10 µM, the TGI [19] was > 10 µM and the TGI [20] was > 10 µM. The TGI [45] was > 10 µM, the TGI [46] was > 10 µM and the TGI [47] was > 10 µM. For the same compound, the TGI [49] was > 10 µM, the TGI [50] was > 10 µM and the TGI [21] was > 10 µM. For the same compound, the TGI [51] was > 10 µM, the TGI [52] was > 10 µM and the TGI [23] was > 10 µM. The TGI [53] was > 10 µM, the TGI [24] was > 10 µM and the TGI [25] was > 10 µM. The TGI [54] was > 10 µM, the TGI [26] was > 10 µM and the TGI [27] was > 10 µM. The TGI [28] was > 10 µM, the TGI [55] was > 10 µM and the TGI [56] was > 10 µM. The TGI [57] was > 10 µM, the TGI [58] was > 10 µM and the TGI [31] was > 10 µM. The TGI [32] was > 10 µM, the TGI [33] was > 10 µM and the TGI [35] was > 10 µM.
